Reference: US9828368B2 (MERCK SHARP & DOHME CORP., priority 2013, dated 2017)
Read-outs that look alike come from different tables or passages of the source.

Tests used:
hOX1R = hOX1R (Homo sapiens, UniProt O43613); assay: FLIPR Ca2+ flux assay, hOX1R; type: cell-based
human orexin-2 receptor = human orexin-2 receptor (Homo sapiens (Human), UniProt O43614); assay: FLIPR Ca2+ flux assay, hOX2R; type: cell-based; settings: CHO cells expressing human orexin-2 receptor; agonist 70 pM Ala-6,12 orexin-A
Method: In a typical experiment the OX1 and OX2 receptor antagonistic activity of the compounds of the present invention was determined in accordance with the following experimental method. For intracellular calcium measurements, Chinese hamster ovary (CHO) cells expressing the rat orexin-1 receptor or the human orexin-2 receptor, are grown in Iscove's modified DMEM containing 2 mM L-glutamine, […], 1% hypoxanthine-thymidine supplement, 100 U/ml penicillin, 100 μg/ml streptomycin and 10% heat-inactivated fetal calf serum (FCS). The cells are seeded at 20,000 cells/well into Becton-Dickinson black 384-well clear bottom sterile plates coated with poly-D-lysine. All reagents were from GIBCO-Invitrogen Corp. The seeded plates are incubated overnight at 37° C. and 5% CO2. Ala-6,12 human orexin-A as the agonist is prepared as a 1 mM stock solution in 1% bovine serum albumin (BSA) and diluted in assay buffer (HBSS containing 20 mM HEPES, 0.1% BSA and 2.5 mM probenecid, pH7.4) for use in the assay at a final concentration of 70 pM. Test compounds are prepared as 10 mM stock solution in DMSO, then diluted in 384-well plates, first in DMSO, then assay buffer. On the day of the assay, cells are washed 3 times with 100 μl assay buffer and then incubated for 60 min (37° C., 5% CO2) in 60 μl assay buffer containing 1 μM Fluo-4AM ester, 0.02% pluronic acid, and 1% BSA. The dye loading solution is then aspirated and cells are washed 3 times with 100 μl assay buffer. 30 μl of that same buffer is left in each well. Within the Fluorescent Imaging Plate Reader (FLIPR, Molecular Devices), test compounds are added to the plate in a volume of 25 μl, incubated for 5 min and finally 25 μl of agonist is added. Fluorescence is measured for each well at 1 second intervals for 5 minutes and the height of each fluorescence peak is compared to the height of the fluorescence peak induced by 70 pM Ala-6,12 orexin-A with buffer in place of antagonist. […] The intrinsic orexin receptor antagonist activity of a compound which may be used in the present invention may be determined by these assays.

[1] = CHO cells, agonist 70 pM Ala-6,12 orexin-A, rat orexin-1 receptor, read-out: hOX1R FLIPR IC50

Chain of human orexin-2 receptor (O43614 whole entry): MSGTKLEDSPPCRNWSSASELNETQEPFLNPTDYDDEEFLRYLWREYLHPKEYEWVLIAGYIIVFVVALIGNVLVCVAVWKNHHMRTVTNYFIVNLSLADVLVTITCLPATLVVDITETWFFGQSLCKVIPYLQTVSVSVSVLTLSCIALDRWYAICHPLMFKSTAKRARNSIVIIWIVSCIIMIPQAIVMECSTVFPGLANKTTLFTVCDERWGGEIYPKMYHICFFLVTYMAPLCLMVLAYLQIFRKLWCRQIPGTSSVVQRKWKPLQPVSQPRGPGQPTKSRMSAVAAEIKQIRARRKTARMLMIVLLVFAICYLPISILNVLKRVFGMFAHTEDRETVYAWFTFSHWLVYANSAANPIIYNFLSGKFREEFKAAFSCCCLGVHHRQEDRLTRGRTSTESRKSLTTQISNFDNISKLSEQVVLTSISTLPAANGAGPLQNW

Compound | IC50 (hOX1R; [1]) | IC50 (human orexin-2 receptor) | IC50 (hOX1R)
CC(O)c1nc([C@@H]2CC[C@@H](C)N(C(=O)c3ccccc3-n3nccn3)C2)oc1-c1ccccc1 (single isomer, unassigned) [Example 64] | 136 nM | 76 nM | –
CC(O)c1nc([C@@H]2CC[C@@H](C)N(C(=O)c3ccccc3-n3nccn3)C2)oc1-c1ccccc1 (single isomer, unassigned) [Example 65] | 155 nM | 130 nM | –
CCC(C)(O)c1nc([C@@H]2CC[C@@H](C)N(C(=O)c3ccsc3-n3nccn3)C2)oc1C (stereo in doubt) [Example 48, (2-(2H-1,2,3-Triazol-2-yl)thiophen-3-yl)((2R,5R)-5-(4-((S)-2-hydroxybutan-2-yl)-5-methyloxazol-2-yl)-2-methylpiperidin-1-yl)methanone] | 1810 nM | – | –
C[C@@H]1CC[C@@H](c2nc(Br)co2)CN1C(=O)c1ccccc1-n1nccn1 [Example 1, (2-(2H-1,2,3-Triazol-2-yl)phenyl)((2R,5R)-5-(4-bromooxazol-2-yl)-2-methylpiperidin-1-yl)methanone] | – | 138 nM | ~7900 nM
COC(=O)C1CC1c1coc([C@@H]2CC[C@@H](C)N(C(=O)c3ccccc3-n3nccn3)C2)n1 (stereo partly drawn) [Example 2, Methyl 2-(2-((3R,6R)-1-(2-(2H-1,2,3-triazol-2-yl)benzoyl)-6-methylpiperidin-3-yl)oxazol-4-yl)cyclopropanecarboxylate] | 3000 nM | 49 nM | –
C[C@@H]1CC[C@@H](c2nc(C3CC3)co2)CN1C(=O)c1ccccc1-n1nccn1 [Example 4, (2-(2H-1,2,3-Triazol-2-yl)phenyl)((2R,5R)-5-(4-cyclopropyloxazol-2-yl)-2-methylpiperidin-1-yl)methanone] | 700 nM | 47 nM | –
C[C@@H]1CC[C@@H](c2nc(-c3ccccc3CO)co2)CN1C(=O)c1ccccc1-n1nccn1 [Example 5, (2-(2H-1,2,3-Triazol-2-yl)phenyl)((2R,5R)-5-(4-(2-(hydroxymethyl)phenyl)oxazol-2-yl)-2-methylpiperidin-l-yl)methanone] | 46 nM | 30 nM | –
C[C@@H]1CC[C@@H](c2nc(-c3cccc(F)n3)co2)CN1C(=O)c1ccccc1-n1nccn1 [Example 6, (2-(2H-1,2,3-Triazol-2-yl)phenyl)((2R, 5R)-5-(4-(6-fluoropyridin-2-yl)oxazol-2-yl)-2-methylpiperidin-1-yl)methanone] | 670 nM | 150 nM | –
Cc1cccc(-c2coc([C@@H]3CC[C@@H](C)N(C(=O)c4ccccc4-n4nccn4)C3)n2)c1 [Example 7, (2-(2H-1,2,3-Triazol-2-yl)phenyl)((2R,5R)-2-methyl-5-(4-(m-tolyl)oxazol-2-yl)piperidin-1-yl)methanone] | 260 nM | 410 nM | –
COc1ccccc1C(=O)N1C[C@H](c2nc(C(C)(C)O)c(C)o2)CC[C@H]1C [Example 31, ((2R,5R)-5-(4-(2-Hydroxypropan-2-yl)-5-methyloxazol-2-yl)-2-methypiperidin-1-yl)(2-methoxyphenyl)methanone] | – | 80 nM | –
Cc1oc([C@@H]2CC[C@@H](C)N(C(=O)c3cscc3-c3ncccn3)C2)nc1C(C)(C)O [Example 36] | > 10000 nM | – | –
CC[C@](C)(O)c1nc([C@@H]2CC[C@@H](C)N(C(=O)c3ccsc3-n3nccn3)C2)oc1C [Example 49, (2-(2H-1,2,3-triazol-2-yl)thiophen-3-yl)((2R,5R)-5-(4-((S)-2-hydroxybutan-2-yl)-5-methyloxazol-2-yl)-2-methylpiperidin-1-yl)methanone] | 1740 nM | – | –
C[C@@H]1CC[C@@H](c2nc(CN(C)C)c(-c3ccccc3)o2)CN1C(=O)c1ccccc1-n1nccn1 [Example 66, (2-(2H-1,2,3-Triazol-2-yl)phenyl)((2R,5R)-5-(4-((dimethylamino)methyl)-5-phenyloxazol-2-yl)-2-methylpiperidin-1-yl)methanone] | – | 983 nM | –
COC(=O)Cc1nc([C@@H]2CC[C@@H](C)N(C(=O)c3ccccc3-n3nccn3)C2)oc1-c1ccccc1 [Example 67] | 93 nM | – | –
